The nature of the data set: solvent given as SMILES.

Compound `C(=C\c1cc(-c2ccc3ccccc3c2)c(/C=C/c2ccc(N(c3ccccc3)c3ccccc3)cc2)cc1-c1ccc2ccccc2c1)/c1ccc(N(c2ccccc2)c2ccccc2)cc1` returned an absorption maximum (in ClCCl) of 419 nm.

`CC(C)(C)c1ccc2c(c1)sc1[n+]2[B-](F)(F)n2c(c3cccc4c(Br)ccc2c43)=N1` displayed an absorption maximum (in C1CCOC1) of 494 nm; an absorption maximum (in CC#N) of 488 nm; an absorption maximum (in CCCCCC) of 490 nm; an absorption maximum (in Cc1ccccc1) of 498 nm; an absorption maximum (in ClCCl) of 463 nm.

Under “in Cc1ccccc1”, `N#Cc1nc2c3ccc(-c4ccc(N(c5ccccc5)c5ccccc5)cc4)cc3c3cc(-c4ccc(N(c5ccccc5)c5ccccc5)cc4)ccc3c2nc1C#N` gave an absorption maximum of 460 nm.

In turn, `CC(C)c1cc(N(C)C)c(C#N)c2c1-c1cccc3cccc-2c13` registered an absorption maximum (in O) of 430 nm.

Consider `CC1(C)CCc2c(c3ccccc3c3nc4c5c(c6ccccc6c4nc23)OC(C)(C)CC5)O1`, for which the absorption maximum is reported as 458.09 nm (in C1CCOC1); 459.98 nm (in C1COCCO1); 459.98 nm (in CC#N); 454.96 nm (in CC(C)O); 452.08 nm (in CCCCCC); 458.93 nm (in CN(C)C=O). This compound gave an absorption maximum (in CO) of 457.04 nm, an absorption maximum (in ClC(Cl)Cl) of 461.04 nm and an absorption maximum (in c1ccccc1) of 459.98 nm.

With `CC(=O)c1c(N[C@@H](CC(C)C)C(=O)O)c2ccc(N(C)C)cc2oc1=O`, the absorption maximum (in ClCCl) is on record as 372 nm.

In the case of `c1cc2c3c(cccc3c1)NC(c1ccc3ccc4cccc5ccc1c3c45)N2`, the absorption maximum was 341 nm (in CC#N), 340 nm (in CO), 344 nm (in CS(C)=O) and 344 nm (in Cc1ccccc1).

`CCCC1(CCC)c2ccccc2-c2ccc(-c3ccc(C(C)(C)C)cc3)cc21` had an absorption maximum (in C1CCCCC1) of 314 nm.

Take `CC1=C(C2=C(C)C(C)=[N+]3C2=Cc2cc(C)c(C)n2[B-]3(F)F)C2=Cc3cc(C)c(C)n3[B-](F)(F)[N+]2=C1C`: the absorption maximum (in ClCCl) is reported as 557 nm.

`CC(C)(C)c1ccc2c(c1)c1cc(C(C)(C)C)ccc1n2-c1ccc(C(=O)c2ccncc2)cc1` returned an absorption maximum (in C1CCOC1) of 367.32 nm, an absorption maximum (in CCCCCC) of 372.17 nm, an absorption maximum (in Cc1ccccc1) of 373.66 nm and an absorption maximum (in ClCCl) of 377.92 nm.

In the case of `COC(=O)c1cc(=O)n(C)c2cc(-c3ccc(N4CCN(C)CC4)cc3)sc12`, the absorption maximum is 418 nm (in CC#N) and 420 nm (in ClCCl).

In the case of `CC(C)(C)c1ccc2c(c1)c1cc(C(C)(C)C)ccc1n2-c1ccc(C(=O)c2ccc(-n3c4ccc(C(C)(C)C)cc4c4cc(C(C)(C)C)ccc43)nc2)cn1`, the absorption maximum is, setting by setting: (in C1CCOC1) 377.31 nm; (in Cc1ccccc1) 383.97 nm; (in ClCCl) 382.72 nm.

`Cc1ccc(-c2ccc(/C=C/c3cccs3)cn2)nc1` came in with an absorption maximum (in CC#N) of 348 nm.

Under “in ClCCl”, `COc1cc2c(cc1OC)C1=C[C@H](c3ccccc3)C3(C(C#N)=C(C#N)N1CC2)c1cc(Cl)ccc1-c1ccc(Cl)cc13` yielded an absorption maximum of 310 nm.

Under “in ClC(Cl)Cl”, `CCOC(CN1C(=O)C2=C(c3ccsc3)N(CC(OCC)OCC)C(=O)C2=C1c1ccsc1)OCC` had an absorption maximum of 493 nm.

Take `Cc1cc2ccsc2c2[nH]c3ccccc3c12`: where the note is “in ClCCl”, the absorption maximum is on record as 310 nm.

Under “in Cc1ccccc1”, `N#Cc1cccc(N2c3ccccc3C(c3ccccc3)(c3ccccc3)c3ccccc32)c1` came in with an absorption maximum of 284 nm.

On to `Cc1ccc(/C=C/c2ccccc2-[n+]2cc([O-])on2)cc1`, for which the absorption maximum was 310 nm (in C1CCCCC1) and 304 nm (in CC#N).

Turning to `c1ccc2cc3cc(-c4cc(-c5nccs5)nc(-c5nccs5)c4)ccc3cc2c1`, the absorption maximum runs as follows: (in CC#N) 305 nm; (in CCCCCC) 375 nm; (in CO) 356 nm; (in ClC(Cl)Cl) 394 nm.

Turning to `O=[N+]([O-])c1ccc(O)cc1`, the absorption maximum by setting is: (in CO) 309 nm; (in O) 401 nm.

The record behind these values is the Deep4Chem optical property database.
